# Test results from patent US4742045A, “Glycopeptide antibiotics” (SmithKline Beckman Corporation, priority 1986, dated 1988).
# Where two headings read alike, the source gives them in different places.
# Columns and labels:
# Streptococcus pyogenes = assay: standard microtiter assay, minimum inhibitory concentration; format: cell-based; details: Streptococcus pyogenes, read-out: minimum inhibitory concentration
# Description: (§1) Representative results of standard microtiter assays are reported in Tables 1, 2 and 3 which follow, as the minimum inhibitory concentration of antibiotic (μg/ml).
# (§2) In Table 1, test organisms 1-13 were different strains of Staphylococcus aureus, and 14-16 were different strains of Staphylococcus epidermidis. In Table 2, test organisms 1-5 were different strains of S. aureus; 6, 8, 12 and 14 were different strains of S. epidermidis; 7 was a Staphylococcus haemolyticus; 9 and 10 were different strains of Streptococcus faecalis; 11 was a Streptococcus pyogenes; and 13 was a Staphylococcus saprophyticus. In Table 3, test organisms 1-3 were different strains of S. aureus; 4 and 6 were different strains of S. epidermidis; 5 was a S. haemolyticus and 7 and 8 were different strains of Streptococcus faecalis. Except where individual components are indicated, the CWI-785 antibiotic employed was the CWI-785 complex; in some cases, HCl salts of the CWI-785 antibiotic were employed.
# Group B Strep. = assay: MIC against an expanded panel; format: cell-based; details: Table 4, Group B Strep. (4 strains)
# Description: (§3) The number of strains tested is shown in parentheses below each organism. The average MIC is reported in μg/ml.
# Coag-neg. Staphylococci = assay: MIC against an expanded panel; format: cell-based; details: Table 4, Coag-neg. Staphylococci (24 strains)
# Description: as §3
# Viridans = assay: MIC against an expanded panel; format: cell-based; details: Table 4, Viridans (2 strains)
# Description: as §3
# Group A Strep. = assay: MIC against an expanded panel; format: cell-based; details: Table 4, Group A Strep. (6 strains)
# Description: as §3
# JK Diptheroids = assay: MIC against an expanded panel; format: cell-based; details: Table 4, JK Diptheroids (19 strains)
# Description: as §3
# STAPH. AUREUS HH 127 = assay: prophylactic activity, dosing preinfection; format: in vivo, mice; details: for ED50: Staphylococcus aureus, in Mus musculus
# Streptococcus faecalis = assay: standard microtiter assay, minimum inhibitory concentration; format: cell-based
# Description: as §1, §2, §3
# (§4) In Table 5 are shown data from standard microtiter assays carried out in a presence of no serum, 50% human serum (hum.) and 50% mouse serum (mse.). The test organisms were 1: S. aureus; 2,4 and 5: different strains of S. epidermidis; 3: S. haemolyticus; 6: S. saprophyticus; 7 and 8: different strains of S. faecalis.
# Staphylococcus aureus = assay: as above; format: cell-based
# Description: as §1, §2, §3, §4
# [1] = test system: Staphylococcus saprophyticus; assay: as above; format: cell-based; details: Staphylococcus saprophyticus
# Description: as §1, §2, §4
# [2] = test system: Staphylococcus epidermidis; assay: as above; format: cell-based; details: Staphylococcus epidermidis
# Description: as §1, §2, §4
# [3] = test system: Staphylococcus haemolyticus; assay: as above; format: cell-based; details: Staphylococcus haemolyticus
# Description: as §1, §2, §4
# S. epidermidis = assay: mice infected i.p., antibiotic i.v. 1 hr post infection, ED50; format: in vivo; details: Staphylococcus epidermidis, 1 h
# Description: (§5) In Table 6, below, is shown the ED50 in mg/kg of HPB4 in comparison to vancomycin and teicoplanin. Mice were injected i.p. with the indicated organism and then i.v., 1 hr post infection, with the indicated antibiotic.
# S. aureus = assay: mice infected intraperitoneally, dosed 1 hr after infection, ED50; format: in vivo; details: Staphylococcus aureus, 1 h, antibiotic i.v. 1 hr post infection
# Description: (§6) The in vivo activity of the CWI-785 complex and its components and hydrolysis products was confirmed by administering selected CWI-785 antibiotics to mice infected with various gram-positive pathogens. In one representative assay, in which mice infected intraperitoneally with 46.8 LD50 's of S. aureus (strain 1, Tables 1 and 2) were dosed once, subcutaneously one hour after infection, the following ED50 's (mg/kg) were observed: CWI-785B: 2.4, CWI-785C: 3.1, CWI-785: 3.8, HPB3: 0.9, vancomycin: 0.7. In a second representative assay carried out as above except that mice were infected with 3.17 LD50 's of S. faecalis (strain 9, Table 2), the following ED50 's were observed: HPB3 hydrochloride: 1.6, HPB4 hydrochloride: 1.6, vancomycin: 2.2, teicoplanin: 1.3.
# as §5
# S. faecalis = assay: as above; format: in vivo; details: Enterococcus faecalis, 1 h
# Description: as §6, §5
compound,measurement,setting,value
"CN[C@H](CC(C)C)C(=O)N[C@H]1C(=O)N[C@@H](CC(N)=O)C(=O)N[C@H]2C(=O)N[C@H]3C(=O)N[C@H](C(=O)N[C@H](C(=O)O)c4cc(O)cc(O)c4-c4cc3ccc4O)[C@H](O)c3ccc(c(Cl)c3)Oc3cc2cc(c3O[C@@H]2O[C@H](CO)[C@@H](O)[C@H](O)[C@H]2O[C@H]2C[C@](C)(N)[C@H](O)[C@H](C)O2)Oc2ccc(cc2Cl)[C@H]1O [Vancomycin, vancomycin]",MIC,Streptococcus pyogenes,0.8 µg/mL
same,MIC RANGE,Group B Strep.,0.4 to 0.8 µg/mL
same,MIC RANGE,Coag-neg. Staphylococci,0.4 to 6.3 µg/mL
same,MIC50,Coag-neg. Staphylococci; read-out: MIC50,3.1 µg/mL
same,MIC RANGE,Viridans,0.05 to 0.8 µg/mL
same,MIC RANGE,Group A Strep.,0.04 to 0.8 µg/mL
same,MIC50,Group A Strep.; read-out: MIC50,0.4 µg/mL
same,MIC RANGE,JK Diptheroids,0.8 to 1.6 µg/mL
same,MIC50,JK Diptheroids; read-out: MIC50,1.6 µg/mL
same,ED50,STAPH. AUREUS HH 127; iv,0.156 mg/kg
same,ED50,STAPH. AUREUS HH 127; sc,0.31 mg/kg
same,PERCENT SURVIVAL,"STAPH. AUREUS HH 127; Table 7: 40 mg/kg, 4 hr preinfection, S.C.",20%
same,PERCENT SURVIVAL,"STAPH. AUREUS HH 127; Table 8: 40 mg/kg (I.V.), 6 hr preinfection",10%
same,MIC50,Streptococcus faecalis; Enterococcus faecalis,0.4 µg/mL
same,MIC,"Streptococcus faecalis; Enterococcus faecalis, Table 5 organism 7 S. faecalis, 50% Hum. Serum",3.1 µg/mL
same,MIC,"Streptococcus faecalis; Enterococcus faecalis, Table 5 organism 7 S. faecalis, 50% Mse. Serum",6.3 µg/mL
same,MIC,"Streptococcus faecalis; Enterococcus faecalis, Table 5 organism 7 S. faecalis, No Serum",1.6 µg/mL
same,MIC,"Streptococcus faecalis; Enterococcus faecalis, Table 5 organism 8 S. faecalis, 50% Hum. Serum",3.1 µg/mL
same,MIC,"Streptococcus faecalis; Enterococcus faecalis, Table 5 organism 8 S. faecalis, 50% Mse. Serum",6.3 µg/mL
same,MIC,"Streptococcus faecalis; Enterococcus faecalis, Table 5 organism 8 S. faecalis, No Serum",1.6 µg/mL
same,MBC,"Streptococcus faecalis; Enterococcus faecalis, read-out: MBC50",50 µg/mL
same,MIC,"Streptococcus faecalis; Enterococcus faecalis, read-out: minimum inhibitory concentration, Table 2 test organism 9, Streptococcus faecalis strain",1.6 µg/mL
same,MIC,"Streptococcus faecalis; Enterococcus faecalis, read-out: minimum inhibitory concentration, Table 2 test organism 10, Streptococcus faecalis strain",1.6 µg/mL
same,MIC RANGE,"Streptococcus faecalis; Table 4, Strep. faecalis (12 strains)",0.4 to 0.8 µg/mL
same,MIC50,Staphylococcus aureus; Staphylococcus aureus,1.6 µg/mL
same,MIC,"Staphylococcus aureus; Staphylococcus aureus, Table 5 organism 1 S. aureus, 50% Hum. Serum",3.1 µg/mL
same,MIC,"Staphylococcus aureus; Staphylococcus aureus, Table 5 organism 1 S. aureus, 50% Mse. Serum",1.6 µg/mL
same,MIC,"Staphylococcus aureus; Staphylococcus aureus, Table 5 organism 1 S. aureus, No Serum",1.6 µg/mL
same,MIC,"Staphylococcus aureus; Staphylococcus aureus, read-out: minimum inhibitory concentration, Table 1 test organism 1, S. aureus strain",1.6 µg/mL
same,MIC,"Staphylococcus aureus; Staphylococcus aureus, read-out: minimum inhibitory concentration, Table 1 test organism 2, S. aureus strain",1.6 µg/mL
same,MIC,"Staphylococcus aureus; Staphylococcus aureus, read-out: minimum inhibitory concentration, Table 1 test organism 3, S. aureus strain",1.6 µg/mL
same,MIC,"Staphylococcus aureus; Staphylococcus aureus, read-out: minimum inhibitory concentration, Table 1 test organism 4, S. aureus strain",1.6 µg/mL
same,MIC,"Staphylococcus aureus; Staphylococcus aureus, read-out: minimum inhibitory concentration, Table 1 test organism 5, S. aureus strain",1.6 µg/mL
same,MIC,"Staphylococcus aureus; Staphylococcus aureus, read-out: minimum inhibitory concentration, Table 1 test organism 6, S. aureus strain",1.6 µg/mL
same,MIC,"Staphylococcus aureus; Staphylococcus aureus, read-out: minimum inhibitory concentration, Table 1 test organism 7, S. aureus strain",3.1 µg/mL
same,MIC,"Staphylococcus aureus; Staphylococcus aureus, read-out: minimum inhibitory concentration, Table 1 test organism 8, S. aureus strain",1.6 µg/mL
same,MIC,"Staphylococcus aureus; Staphylococcus aureus, read-out: minimum inhibitory concentration, Table 1 test organism 9, S. aureus strain",1.6 µg/mL
same,MIC,"Staphylococcus aureus; Staphylococcus aureus, read-out: minimum inhibitory concentration, Table 1 test organism 10, S. aureus strain",1.6 µg/mL
same,MIC,"Staphylococcus aureus; Staphylococcus aureus, read-out: minimum inhibitory concentration, Table 1 test organism 11, S. aureus strain",1.6 µg/mL
same,MIC,"Staphylococcus aureus; Staphylococcus aureus, read-out: minimum inhibitory concentration, Table 1 test organism 12, S. aureus strain",1.6 µg/mL
same,MIC,"Staphylococcus aureus; Staphylococcus aureus, read-out: minimum inhibitory concentration, Table 1 test organism 13, S. aureus strain",0.8 µg/mL
same,MIC,"Staphylococcus aureus; Staphylococcus aureus, read-out: minimum inhibitory concentration, Table 2 test organism 1, S. aureus strain",1.6 µg/mL
same,MIC,"Staphylococcus aureus; Staphylococcus aureus, read-out: minimum inhibitory concentration, Table 2 test organism 2, S. aureus strain",1.6 µg/mL
same,MIC,"Staphylococcus aureus; Staphylococcus aureus, read-out: minimum inhibitory concentration, Table 2 test organism 3, S. aureus strain",1.6 µg/mL
same,MIC,"Staphylococcus aureus; Staphylococcus aureus, read-out: minimum inhibitory concentration, Table 2 test organism 4, S. aureus strain",1.6 µg/mL
same,MIC,"Staphylococcus aureus; Staphylococcus aureus, read-out: minimum inhibitory concentration, Table 2 test organism 5, S. aureus strain",1.6 µg/mL
same,MIC RANGE,"Staphylococcus aureus; Table 4, S. aureus (30 strains)",1.6 to 6.3 µg/mL
same,MIC,"[1]; Table 5 organism 6 S. saprophyticus, 50% Hum. Serum",3.1 µg/mL
same,MIC,"[1]; Table 5 organism 6 S. saprophyticus, 50% Mse. Serum",6.3 µg/mL
same,MIC,"[1]; Table 5 organism 6 S. saprophyticus, No Serum",1.6 µg/mL
same,MIC,"[1]; read-out: minimum inhibitory concentration, Table 2 test organism 13, Staphylococcus saprophyticus",1.6 µg/mL
same,MIC,"[2]; Table 5 organism 2 S. epidermidis, 50% Hum. Serum",3.1 µg/mL
same,MIC,"[2]; Table 5 organism 2 S. epidermidis, 50% Mse. Serum",3.1 µg/mL
same,MIC,"[2]; Table 5 organism 2 S. epidermidis, No Serum",1.6 µg/mL
same,MIC,"[2]; Table 5 organism 4 S. epidermidis, 50% Hum. Serum",3.1 µg/mL
same,MIC,"[2]; Table 5 organism 4 S. epidermidis, 50% Mse. Serum",3.1 µg/mL
same,MIC,"[2]; Table 5 organism 4 S. epidermidis, No Serum",1.6 µg/mL
same,MIC,"[2]; Table 5 organism 5 S. epidermidis, 50% Hum. Serum",≤ 0.1 µg/mL
same,MIC,"[2]; Table 5 organism 5 S. epidermidis, 50% Mse. Serum",3.1 µg/mL
same,MIC,"[2]; Table 5 organism 5 S. epidermidis, No Serum",1.6 µg/mL
same,MIC,"[2]; read-out: minimum inhibitory concentration, Table 1 test organism 14, S. epidermidis strain",1.6 µg/mL
same,MIC,"[2]; read-out: minimum inhibitory concentration, Table 1 test organism 15, S. epidermidis strain",3.1 µg/mL
same,MIC,"[2]; read-out: minimum inhibitory concentration, Table 1 test organism 16, S. epidermidis strain",1.6 µg/mL
same,MIC,"[2]; read-out: minimum inhibitory concentration, Table 2 test organism 6, S. epidermidis strain",1.6 µg/mL
same,MIC,"[2]; read-out: minimum inhibitory concentration, Table 2 test organism 8, S. epidermidis strain",1.6 µg/mL
same,MIC,"[2]; read-out: minimum inhibitory concentration, Table 2 test organism 12, S. epidermidis strain",1.6 µg/mL
same,MIC,"[2]; read-out: minimum inhibitory concentration, Table 2 test organism 14, S. epidermidis strain",1.6 µg/mL
same,MIC,"[3]; Table 5 organism 3 S. haemolyticus, 50% Hum. Serum",3.1 µg/mL
same,MIC,"[3]; Table 5 organism 3 S. haemolyticus, 50% Mse. Serum",6.3 µg/mL
same,MIC,"[3]; Table 5 organism 3 S. haemolyticus, No Serum",3.1 µg/mL
same,MIC,"[3]; read-out: minimum inhibitory concentration, Table 2 test organism 7, Staphylococcus haemolyticus",3.1 µg/mL
same,ED50,S. epidermidis,< 1.25 mg/kg
same,ED50,S. aureus; S. aureus 2620 (24 × LD50) i.p.,1.4 mg/kg
same,ED50,S. aureus; S. aureus HH 127 (35 × LD50) i.p.,0.4 mg/kg
same,ED50,S. faecalis,1.3 mg/kg
